# According to patent US20200352976A1, “HYPOMETHYLATING AGENTS FOR USE IN TREATMENT OF CANCER” (Otsuka Pharmaceutical Co., Ltd, priority 2019, published 2020):
# System: LINE-1 repeats (global DNA methylation)
# Test: LINE-1 methylation assay on whole blood (global DNA methylation), Phase 1/2 trial
# Type: in vivo, human
# Description: Whole-blood samples were collected immediately before treatment, once a week during the first treatment cycle, and then on day 1 of subsequent cycles for demethylation analysis. Global DNA methylation was measured by the long interspersed nuclear element-1 (LINE-1) methylation assay. The LINE-1 assay measures methylation levels of LINE-1 repeats, which serve as a surrogate for global DNA methylation levels. Results of LINE-1 assays were used to assess and changes in methylation from baseline.
# Activity and safety endpoints were evaluated for all patients who received at least one dose of study drug, and no patients who received treatment were excluded from the analyses. […] Time to response and duration of response were summarized in days using descriptive statistics. Overall survival was analyzed using the Kaplan-Meier method, with survival time censored on the last date of contact if the patient was alive or lost to follow-up. Blood and platelet transfusion independence were summarized descriptively in the subset of patients who were transfusion-dependent at baseline. Change from baseline LINE-1 methylation and maximum LINE-1 demethylation were also summarized descriptively, with maximum LINE-1 demethylation defined as the largest percent decrease from baseline in methylation values by patient between days 8 and 22 of the first treatment cycle.
structure (smiles),measurement,setting,value
Nc1ncn([C@H]2CC(OP(=O)(O)OC[C@H]3O[C@@H](n4cnc5c(=O)[nH]c(N)nc54)CC3O)[C@@H](CO)O2)c(=O)n1 (stereo partly shown) [Compound I-1],Mean maximum LINE-1 demethylation,60 mg/m^2,23.9%
same,Mean maximum LINE-1 demethylation,90 mg/m^2,28.2%
same,Mean maximum LINE-1 demethylation,relapsed or refractory,28.9%
same,Time of maximum extent of global DNA demethylation,returned to pretreatment levels by day 28,~8 days
same,Mean maximum LINE-1 demethylation,treatment-naïve,28.6%
same,Mean maximum LINE-1 demethylation,with objective treatment response,28.1%
same,Mean maximum LINE-1 demethylation,without objective treatment response,29.4%
